From PubChem BioAssay (NCI)
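Exposure lasted 48 hours, with cells grown in 96-well plates and compounds tested at five concentrations. GI50 marks 50% less growth. TGI is the concentration that stops growth completely.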

How the values were obtained:
Assay in all cases: DTP human tumour cell line panel, 48 h
786-0 renal = tested on: 786-0 renal
MCF7 breast = tested on: MCF7 breast
UACC-62 melanoma = tested on: UACC-62 melanoma
NCI-H226 lung = tested on: NCI-H226 lung
MOLT-4 leukemia = tested on: MOLT-4 leukemia
RPMI-8226 leukemia = tested on: RPMI-8226 leukemia
SK-MEL-5 melanoma = tested on: SK-MEL-5 melanoma
CCRF-CEM leukemia = tested on: CCRF-CEM leukemia
HOP-62 NSCLC = tested on: HOP-62 NSCLC
U251 CNS = tested on: U251 CNS
CAKI-1 renal = tested on: CAKI-1 renal
UO-31 renal = tested on: UO-31 renal
NCI-H522 lung = tested on: NCI-H522 lung
SK-OV-3 ovarian = tested on: SK-OV-3 ovarian
HS 578T breast = tested on: HS 578T breast
HOP-92 NSCLC = tested on: HOP-92 NSCLC
SK-MEL-2 melanoma = tested on: SK-MEL-2 melanoma
RXF 393 renal = tested on: RXF 393 renal
SW-620 colon = tested on: SW-620 colon
SF-295 CNS = tested on: SF-295 CNS
COLO 205 colon = tested on: COLO 205 colon
HCT-116 colon = tested on: HCT-116 colon
K-562 leukemia = tested on: K-562 leukemia
A498 renal = tested on: A498 renal
IGROV1 ovarian = tested on: IGROV1 ovarian
TK-10 renal = tested on: TK-10 renal
SR leukemia = tested on: SR leukemia
NCI-H460 lung = tested on: NCI-H460 lung
SF-268 CNS = tested on: SF-268 CNS
UACC-257 melanoma = tested on: UACC-257 melanoma
OVCAR-5 ovarian = tested on: OVCAR-5 ovarian
OVCAR-8 ovarian = tested on: OVCAR-8 ovarian
OVCAR-3 ovarian = tested on: OVCAR-3 ovarian
BT-549 breast = tested on: BT-549 breast
NCI/ADR-RES ovarian = tested on: NCI/ADR-RES ovarian
EKVX NSCLC = tested on: EKVX NSCLC
SF-539 CNS = tested on: SF-539 CNS
HCC-2998 colon = tested on: HCC-2998 colon
MDA-MB-231 breast = tested on: MDA-MB-231 breast
MDA-MB-435 = tested on: MDA-MB-435
A549 NSCLC = tested on: A549 NSCLC
HL-60(TB) leukemia = tested on: HL-60(TB) leukemia
HCT-15 colon = tested on: HCT-15 colon
T-47D breast = tested on: T-47D breast
ACHN renal = tested on: ACHN renal
OVCAR-4 ovarian = tested on: OVCAR-4 ovarian
MALME-3M melanoma = tested on: MALME-3M melanoma
SN12C renal = tested on: SN12C renal
M14 melanoma = tested on: M14 melanoma
HT29 colon = tested on: HT29 colon
SNB-19 CNS = tested on: SNB-19 CNS
LOX IMVI melanoma = tested on: LOX IMVI melanoma
SNB-75 CNS = tested on: SNB-75 CNS
SK-MEL-28 melanoma = tested on: SK-MEL-28 melanoma
PC-3 prostate = tested on: PC-3 prostate
DU-145 prostate = tested on: DU-145 prostate
NCI-H23 lung = tested on: NCI-H23 lung
KM12 colon = tested on: KM12 colon

CN1CC[C@H](c2c(O)cc(O)c3c(=O)cc(-c4ccccc4Cl)oc23)[C@H](O)C1
GI50 (786-0 renal): 71.7 nM
TGI (786-0 renal): > 10000 nM
GI50 (MCF7 breast): 28 nM
TGI (MCF7 breast): > 10000 nM
GI50 (UACC-62 melanoma): 51.5 nM
TGI (UACC-62 melanoma): 164 nM
GI50 (NCI-H226 lung): 69.5 nM
TGI (NCI-H226 lung): 460 nM
GI50 (MOLT-4 leukemia): 76 nM
TGI (MOLT-4 leukemia): > 10000 nM
GI50 (RPMI-8226 leukemia): 76 nM
TGI (RPMI-8226 leukemia): > 2320 nM
GI50 (SK-MEL-5 melanoma): 52 nM
TGI (SK-MEL-5 melanoma): 159 nM
TGI (CCRF-CEM leukemia): > 10000 nM
GI50 (HOP-62 NSCLC): 51.5 nM
TGI (HOP-62 NSCLC): > 2620 nM
TGI (U251 CNS): > 10000 nM
TGI (CAKI-1 renal): > 10000 nM
GI50 (UO-31 renal): 66.2 nM
TGI (UO-31 renal): > 10000 nM
GI50 (NCI-H522 lung): 102 nM
TGI (NCI-H522 lung): 847 nM
GI50 (SK-OV-3 ovarian): 490 nM
TGI (SK-OV-3 ovarian): > 10000 nM
GI50 (HS 578T breast): 61.8 nM
TGI (HS 578T breast): 398 nM
GI50 (HOP-92 NSCLC): 69.3 nM
TGI (HOP-92 NSCLC): 524 nM
GI50 (SK-MEL-2 melanoma): 66.8 nM
TGI (SK-MEL-2 melanoma): 260 nM
GI50 (RXF 393 renal): 20.4 nM
TGI (RXF 393 renal): 67.1 nM
GI50 (SW-620 colon): 57.2 nM
TGI (SW-620 colon): > 10000 nM
GI50 (SF-295 CNS): 210 nM
TGI (SF-295 CNS): 625 nM
GI50 (COLO 205 colon): 43.3 nM
TGI (COLO 205 colon): 209 nM
GI50 (HCT-116 colon): 12.3 nM
TGI (HCT-116 colon): > 10000 nM
GI50 (K-562 leukemia): 225 nM
TGI (K-562 leukemia): > 10000 nM
GI50 (A498 renal): 21.5 nM
TGI (A498 renal): 62 nM
GI50 (IGROV1 ovarian): 41.4 nM
TGI (IGROV1 ovarian): > 10000 nM
GI50 (TK-10 renal): 99.9 nM
TGI (TK-10 renal): > 10000 nM
GI50 (SR leukemia): 4.5 nM
TGI (SR leukemia): > 2670 nM
TGI (NCI-H460 lung): > 10000 nM
GI50 (SF-268 CNS): 64.7 nM
GI50 (UACC-257 melanoma): 128 nM
TGI (UACC-257 melanoma): 910 nM
GI50 (OVCAR-5 ovarian): 53.3 nM
TGI (OVCAR-5 ovarian): > 10000 nM
GI50 (OVCAR-8 ovarian): 72.3 nM
TGI (OVCAR-8 ovarian): > 10000 nM
GI50 (OVCAR-3 ovarian): 54.6 nM
TGI (OVCAR-3 ovarian): > 10000 nM
GI50 (BT-549 breast): 80.7 nM
TGI (BT-549 breast): 599 nM
GI50 (NCI/ADR-RES ovarian): 116 nM
TGI (NCI/ADR-RES ovarian): > 10000 nM
TGI (EKVX NSCLC): 559 nM
GI50 (SF-539 CNS): 139 nM
TGI (SF-539 CNS): 542 nM
GI50 (HCC-2998 colon): 124 nM
TGI (HCC-2998 colon): 761 nM
GI50 (MDA-MB-231 breast): 230 nM
TGI (MDA-MB-231 breast): > 10000 nM
GI50 (MDA-MB-435): 71.2 nM
TGI (MDA-MB-435): 260 nM
GI50 (A549 NSCLC): 94.6 nM
TGI (A549 NSCLC): > 10000 nM
GI50 (HL-60(TB) leukemia): 50.8 nM
TGI (HL-60(TB) leukemia): > 2490 nM
TGI (HCT-15 colon): > 10000 nM
GI50 (T-47D breast): 73.7 nM
TGI (T-47D breast): > 2840 nM
GI50 (ACHN renal): 31.6 nM
TGI (ACHN renal): > 10000 nM
GI50 (OVCAR-4 ovarian): 140 nM
TGI (OVCAR-4 ovarian): 1540 nM
GI50 (MALME-3M melanoma): 154 nM
TGI (MALME-3M melanoma): 594 nM
GI50 (SN12C renal): 70.3 nM
TGI (SN12C renal): > 10000 nM
GI50 (M14 melanoma): 69.6 nM
TGI (M14 melanoma): 293 nM
TGI (HT29 colon): > 10000 nM
GI50 (SNB-19 CNS): 64.7 nM
TGI (SNB-19 CNS): > 10000 nM
GI50 (LOX IMVI melanoma): 6.02 nM
TGI (LOX IMVI melanoma): > 10000 nM
GI50 (SNB-75 CNS): 53 nM
TGI (SNB-75 CNS): 155 nM
TGI (SK-MEL-28 melanoma): 1300 nM
GI50 (PC-3 prostate): 77.6 nM
TGI (PC-3 prostate): > 2590 nM
GI50 (DU-145 prostate): 75 nM
TGI (DU-145 prostate): > 10000 nM
GI50 (NCI-H23 lung): 79.3 nM
TGI (NCI-H23 lung): 609 nM
TGI (KM12 colon): > 10000 nM
